# Test results reported in article PMC2441954, “Phase I pharmacokinetic and pharmacodynamic study of the prenyl transferase inhibitor AZD3409 in patients with advanced cancer” (British Journal of Cancer, 2008).
# How the values were obtained:
# [1] = target: FTase; set-up: method as in Stephens et al, 2003; conditions: Ki4B-Ras as substrate; ref Stephens et al, 2003; cited from earlier work
# [2] = target: GGTase-1; set-up: method as in Stephens et al, 2003; conditions: Ki4B-Ras as substrate; ref Stephens et al, 2003; cited from earlier work
# [3] = Phase I dose escalation, toxicity (CTC v2.0) in patients with advanced solid malignancies; format: in vivo
# Procedure: The study was divided into two parts. Part A was an open-label dose-escalation study to define the maximum tolerated dose (MTD). Part B was an enrichment phase in female patients having advanced breast cancer for whom there was no standard therapy available.
# AZD3409 was administered continuously starting on day 1 of each cycle of 21 days. A modified Fibonacci schedule was used for dose escalation, starting from 500 mg AZD3409. […] At least three patients were treated at each dose level. The occurrence of a DLT in a patient during the first cycle led to enrolment of three additional patients. Patients with progressive disease were removed from the study and patients who were removed within the first cycle of the study for reasons other than drug-related toxicity were replaced.
# Pretreatment evaluation included a complete medical history and physical examination. Measurable and evaluable disease was documented before the start of the study and during the study as a basis for the assessment of clinical activity of the treatment. Tumour response was recorded according to RECIST criteria ([Therasse et al, 2000]). Toxicity was monitored at each visit. […] DLT was defined as any of the following events during the first treatment cycle: grade 3 or 4 anaemia or thrombocytopaenia, febrile neutropaenia grade 3, or grade 4 neutropaenia, grade 3 or 4 biochemical toxicity, grade 2 (or worse) nausea and vomiting despite optimal antiemetic therapy, grade 3 or 4 diarrhoea despite optimal loperamide support, failure to take study medication for 7 days or more within the first treatment cycle due to drug-related toxicity or any CTC grade 3 or 4 nonhaematological toxicity (excluding alopaecia). The MTD was defined as the dose below the dose at which two or three of three, or two or more of six patients experienced DLT during cycle 1.
# [4] = test system: tumour cells; set-up: method as in Kelly et al, 2005; conditions: in vitro; corresponds to the μM values; ref Kelly et al, 2005; cited from earlier work
# [5] = healthy male volunteers; earlier trial, no reference given; cited from earlier work
# [6] = test system: 253J-BV urothelial cells xenografts; set-up: method as in Stephens et al, 2003; Kelly et al, 2005; conditions: mice bearing 253J-BV xenografts; ref Stephens et al, 2003; Kelly et al, 2005; cited from earlier work
# [7] = test system: cytochrome P450; set-up: method as in unpublished data; conditions: once daily oral dosing to rats for 28 days; ref unpublished data; cited from earlier work
# [8] = test system: RT-112 urothelial cells xenografts; set-up: method as in Stephens et al, 2003; Kelly et al, 2005; conditions: mice bearing RT-112 xenografts; ref Stephens et al, 2003; Kelly et al, 2005; cited from earlier work
# [9] = test system: Calu-6 xenograft; set-up: method as in unpublished data; conditions: Calu-6 xenograft model, ref unpublished data, cited from earlier work
# [10] = test system: H-Ras-transformed mouse 3T3 fibroblasts (Hras5) xenografts; set-up: method as in Stephens et al, 2003; Kelly et al, 2005; conditions: mice bearing Hras5 xenografts; ref Stephens et al, 2003; Kelly et al, 2005; cited from earlier work
# [11] = set-up: method as in Kelly et al, 2005; conditions: rats, oral dosing, pilot mass balance study; ref Kelly et al, 2005; cited from earlier work
# [12] = test system: solid malignant tumour; assay: Tumour response (RECIST) in phase I patients; format: in vivo, human
# Procedure: Pretreatment evaluation included a complete medical history and physical examination. Measurable and evaluable disease was documented before the start of the study and during the study as a basis for the assessment of clinical activity of the treatment. Tumour response was recorded according to RECIST criteria ([Therasse et al, 2000]). Toxicity was monitored at each visit. All toxicities observed were graded according to the Common Toxicity Criteria, version 2.0 ([National Cancer Institute, 1998]). DLT was defined as any of the following events during the first treatment cycle: grade 3 or 4 anaemia or thrombocytopaenia, febrile neutropaenia grade 3, or grade 4 neutropaenia, grade 3 or 4 biochemical toxicity, grade 2 (or worse) nausea and vomiting despite optimal antiemetic therapy, grade 3 or 4 diarrhoea despite optimal loperamide support, failure to take study medication for 7 days or more within the first treatment cycle due to drug-related toxicity or any CTC grade 3 or 4 nonhaematological toxicity (excluding alopaecia). The MTD was defined as the dose below the dose at which two or three of three, or two or more of six patients experienced DLT during cycle 1.
# [13] = all dose levels, drug-related nonhaematological toxicity
# [14] = cycle 1, 250 mg b.i.d. (part B, fed state), 3 patients
# [15] = cycle 1, 750 mg b.i.d., 8 patients
# [16] = cycle 1, 1250 mg b.i.d., 6 patients
# [17] = cycle 1, 1500 mg b.i.d., 2 patients
# [18] = cycle 1, 1750 mg b.i.d., 4 patients
# [19] = cycle 1, all doses, 29 patients
smiles,measurement,setting,value
CSCC[C@H](NC(=O)c1cc(NC[C@@H]2C[C@H](S)CN2)ccc1CCc1ccc(F)cc1)C(=O)O [AZD3409 acid],Ki,[1],< 1 nM
same,Ki,[2],8 nM
same,chance to suffer from vomiting (grade 1–2) due to the medication,"[3]; at maximal AZD3409 acid plasma concentrations up to 140 ng ml^−1, cycle 1, n=22",below 15%
CSCC[C@H](NC(=O)c1cc(NC[C@@H]2C[C@H](SC(=O)c3cccnc3)CN2)ccc1CCc1ccc(F)cc1)C(=O)OC(C)C [AZD3409],"IC50 inhibition of cell proliferation of tumour cells, converted",[4],0.035 to 3.5 µg/mL
same,dose at which diarrhoea was dose limiting,[5],2500 mg once daily
same,maximum tolerated single dose,[5],1750 mg
same,tumour weight,[6],significant reduction of tumour weight
same,changes in cytochrome P450 content or enzyme activity,[7],no biologically significant changes
same,"dose-limiting gastrointestinal toxicity (grade 3 diarrhoea, grade 3 dehydration, grade 2/3 nausea, grade 2 vomiting)",[3]; 1250 mg b.i.d.,three out of six patients
same,"dose-limiting toxicity: unable to continue due to grade 3 diarrhoea and uncontrolled nausea (grade 2), respectively",[3]; 1500 mg b.i.d.,two patients
same,dose-limiting toxicity: unable to take the drug due to CTC grade 2 vomiting in spite of antiemetics,[3]; 1750 mg b.i.d.,two patients
same,"diarrhoea, patients reporting",[3]; [13],41%
same,"nausea, patients reporting",[3]; [13],55%
same,"vomiting, patients reporting",[3]; [13],55%
same,haematological toxicity,"[3]; cycle 1, 29 evaluable patients",No significant haematological toxicity
same,"Nausea grade 1–2, number of patients",[3]; [14],1
same,"Vomiting grade 1–2, number of patients",[3]; [14],2
same,"Anorexia grade 1–2, number of patients","[3]; cycle 1, 500 mg, 3 patients",1
same,"Fatigue grade 1–2, number of patients","[3]; cycle 1, 500 mg, 3 patients",1
same,"Nausea grade 1–2, number of patients","[3]; cycle 1, 500 mg, 3 patients",1
same,"Vomiting grade 1–2, number of patients","[3]; cycle 1, 500 mg, 3 patients",1
same,"Abdominal pain grade 1–2, number of patients",[3]; [15],1
same,"Anorexia grade 1–2, number of patients",[3]; [15],2
same,"Diarrhoea grade 1–2, number of patients",[3]; [15],3
same,"Fatigue grade 1–2, number of patients",[3]; [15],2
same,"Nausea grade 1–2, number of patients",[3]; [15],5
same,"Vomiting grade 1–2, number of patients",[3]; [15],4
same,"Diarrhoea grade 1–2, number of patients","[3]; cycle 1, 1000 mg, 3 patients",3
same,"Nausea grade 1–2, number of patients","[3]; cycle 1, 1000 mg, 3 patients",2
same,"Vomiting grade 1–2, number of patients","[3]; cycle 1, 1000 mg, 3 patients",2
same,"Abdominal pain grade 1–2, number of patients",[3]; [16],2
same,"Anorexia grade 1–2, number of patients",[3]; [16],1
same,"Diarrhoea grade 1–2, number of patients",[3]; [16],2
same,"Diarrhoea grade 3–4, number of patients",[3]; [16],1
same,"Fatigue grade 1–2, number of patients",[3]; [16],1
same,"Nausea grade 1–2, number of patients",[3]; [16],3
same,"Nausea grade 3–4, number of patients",[3]; [16],1
same,"Vomiting grade 1–2, number of patients",[3]; [16],3
same,"Diarrhoea grade 3–4, number of patients",[3]; [17],1
same,"Nausea grade 1–2, number of patients",[3]; [17],1
same,"Vomiting grade 1–2, number of patients",[3]; [17],1
same,"Anorexia grade 1–2, number of patients",[3]; [18],2
same,"Diarrhoea grade 1–2, number of patients",[3]; [18],4
same,"Fatigue grade 1–2, number of patients",[3]; [18],1
same,"Nausea grade 1–2, number of patients",[3]; [18],3
same,"Vomiting grade 1–2, number of patients",[3]; [18],3
same,"Abdominal pain grade 1–2, total",[3]; [19],3 (10) n (%)
same,"Anorexia grade 1–2, total",[3]; [19],6 (21) n (%)
same,"Diarrhoea grade 1–2, total",[3]; [19],12 (41) n (%)
same,"Diarrhoea grade 3–4, total",[3]; [19],2 (7) n (%)
same,"Fatigue grade 1–2, total",[3]; [19],5 (17) n (%)
same,"Nausea grade 1–2, total",[3]; [19],16 (55) n (%)
same,"Nausea grade 3–4, total",[3]; [19],1 (3) n (%)
same,"Vomiting grade 1–2, total",[3]; [19],16 (55) n (%)
same,MTD of part A,"[3]; patients, fasted state, continuous oral dosing",750 mg b.i.d.
same,tumour weight,[8],significant reduction of tumour weight
same,reduction of the tumour volume,[9]; associated with 66% FTase inhibition,15%
same,inhibition of FTase,[9],66%
same,tumour weight,[10],significant reduction of tumour weight
same,given radioactivity excreted in the urine,[11],1%
same,objective tumour response,[12]; 18 evaluable patients after 4–14 weeks of treatment,No objective tumour response was observed
same,patients with stable disease,"[12]; out of 16 patients, after approximately 2 months",3
same,patients with stable disease,"[12]; three of 18 evaluable patients, stable for 47, 48 and 76 days",17%
